Reference: PMC9940851, “Seleno Containing Compounds as Potent and Selective Antifungal Agents” (ACS Infectious Diseases, 2022)
Values after ≈ are worked out from the molar mass of the structure shown.

Tests used:
ATCC M. furfur 14521 = system: T1, ATCC M. furfur 14521; assay: microbe, parasite or virus in culture; conditions: Malassezia furfur
T1 construct: ATCC 14521
Procedure: (§1) Inoculum preparations for antifungal assays were performed following the CLSI guidelines for antifungal susceptibility testing of yeasts.[31] Antifungal activity was evaluated on unicellular yeasts Candida albicans ATCC 10231, Candida glabrata ATCC 90030 (DSMZ 11226), Malassezia pachydermatis CDC 16334 (DSMZ 6172), Malassezia globosa ATCC MYA 4612, and Malassezia furfur ATCC 14521. All the fungal strains were stored at −80 °C in cryovials. Then Candida spp. and Malassezia pachydermatis were reactivated in RPMI 1640 broth for 24–48 h at 35 °C. The so obtained fresh cultures were streaked onto Sabouraud dextrose agar and incubated for 24–48 h at 35 °C. Malassezia globosa and furfur were reactivated in modified RPMI 1640 broth[32] for 24–48 h at 35 °C (M. furfur) and 33 °C (M. globosa), and then the cultures were streaked onto Leeming and Notman agar (MLNA) and incubated for 48–72 h at 35 °C for M. furfur and at 33 °C for M. globosa. The fungal inoculum for the testing was prepared by suspending in phosphate buffer (PB) 10 mM pH 7 4–5 colonies of about 1 mm diameter. The fungal suspension was then adjusted to a final optical density of 0.5 McFarland standard (1–5 × 10^6 cells/mL). The compound solutions were tested in a range of concentrations from 0.01 μg/mL to 256 μg/mL, and 50 μL were then added in 96 wells microtiter plates with 50 μL of fungal inoculum and incubated for 24–48 h at 35 °C. Growth and sterility controls were performed. […] Compounds 3a, 3c, 5b, 7a–d, 9c, 11e, 11i, and 14a,b were selected as representatives of the chemical moieties synthesized prior to their screen on yeasts of biomedical relevance such as M. pachydermatis DSMZ 6172, C. albicans ATCC 10231, and C. glabrata ATCC 90030 (DSMZ 11226) strains. The clinical used drugs Ketoconazole, SeS2, and Amphotericin B were included as references (Table 1).

M. globosa ATCC MYA 4612 = system: T2, M. globosa ATCC MYA 4612; assay: microbe, parasite or virus in culture; conditions: Malassezia globosa
T2 construct: ATCC MYA 4612
Procedure: as §1

[1] = system: T3, M. pachydermatis DSMZ 6172; assay: microbe, parasite or virus in culture; parameters: broth microdilution MIC, M. pachydermatis and Candida, 35 °C; conditions: Malassezia pachydermatis, DSMZ6172
T3 construct: DSMZ 6172 (CDC 16334)
Procedure: as §1

MgCA = target: T4, MgCA (Malassezia globosa, UniProt A8Q1N3); assay: stopped-flow CO2 hydrase assay; format: biochemical
T4 construct: gene MGL_1814
T4 sequence (A8Q1N3 1-241): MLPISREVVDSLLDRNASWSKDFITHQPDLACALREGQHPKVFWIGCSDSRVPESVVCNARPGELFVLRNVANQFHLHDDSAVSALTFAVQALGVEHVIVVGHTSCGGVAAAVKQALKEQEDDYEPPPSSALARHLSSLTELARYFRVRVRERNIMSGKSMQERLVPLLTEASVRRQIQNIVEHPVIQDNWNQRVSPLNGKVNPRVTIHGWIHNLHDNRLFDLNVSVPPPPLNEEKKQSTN
Procedure, shortened: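 Recombinant carbonic anhydrase (5–12 nM) was preincubated with inhibitor for 15 min at room temperature. CO2 hydration (1.7–17 mM CO2) was then followed by stopped-flow using 0.2 mM phenol red at 557 nm in 20 mM Hepes pH 7.4 with 20 mM Na2SO4, over 10–100 s. Initial rates came from at least six traces, minus uncatalysed rates, and at least three determinations were averaged. Ki was obtained by nonlinear least-squares fitting with the Cheng-Prusoff equation.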

MpaCA = target: T5, MpaCA (Malassezia pachydermatis, UniProt A0A0M8MPA4); assay: stopped-flow CO2 hydrase assay; format: biochemical
T5 construct: gene Malapachy_3798
T5 sequence (A0A0M8MPA4 1-242): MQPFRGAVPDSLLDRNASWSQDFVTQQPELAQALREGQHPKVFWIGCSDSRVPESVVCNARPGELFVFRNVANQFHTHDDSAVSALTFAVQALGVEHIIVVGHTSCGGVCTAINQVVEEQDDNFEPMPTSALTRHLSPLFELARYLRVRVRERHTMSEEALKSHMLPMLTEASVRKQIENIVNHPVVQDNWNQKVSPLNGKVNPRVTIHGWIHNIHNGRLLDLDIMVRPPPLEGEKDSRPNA

C. glabrata DSMZ 11226 = system: T6, C. glabrata DSMZ 11226; assay: microbe, parasite or virus in culture; parameters: broth microdilution MIC, M. pachydermatis and Candida, 35 °C; conditions: Nakaseomyces glabratus, DSMZ11226
T6 construct: DSMZ 11226 (ATCC 90030)
Procedure: as §1

C. albicans = assay: microbe, parasite or virus in culture; parameters: broth microdilution MIC, M. pachydermatis and Candida, 35 °C; conditions: Candida albicans
Procedure: as §1

SMILES | MIC (ATCC M. furfur 14521) | MIC (M. globosa ATCC MYA 4612) | MIC [1] | Ki (MgCA) | Ki (MpaCA) | MIC (C. glabrata DSMZ 11226) | MIC (C. albicans)
O=C(NC(=[Se])Nc1ccc(S(=O)(=O)Nc2nccs2)cc1)c1ccc([N+](=O)[O-])cc1 [10d, 4-Nitro-N-((4-(N-(thiazol-2-yl)sulfamoyl)phenyl)carbamoselenoyl)benzamide] | 85.3 ± 37 µg/mL (≈ 167 µM) | 26.7 ± 9.2 µg/mL (≈ 52.3 µM) | 1.8 ± 1.89 µg/mL (≈ 3.53 µM) | 8.77 µM | 92.8 µM |  | 
O=C(NC(=[Se])Nc1ccc(S(=O)(=O)Nc2nccs2)cc1)c1ccc(F)cc1 [10e, 4-Fluoro-N-((4-(N-(thiazol-2-yl)sulfamoyl)phenyl)carbamoselenoyl)benzamide] | 2.3 ± 2.31 µg/mL (≈ 4.76 µM) | 128 µg/mL (≈ 265 µM) | 1 µg/mL (≈ 2.07 µM) | 8.9 µM | 80.3 µM |  | 
O=C(NC(=[Se])Nc1ccc(S(=O)(=O)Nc2nccs2)cc1)c1ccc(I)cc1 [10f, 4-Iodo-N-((4-(N-(thiazol-2-yl)sulfamoyl)phenyl)carbamoselenoyl)benzamide] | 5.3 ± 2.31 µg/mL (≈ 8.96 µM) | > 256 µg/mL | 2 µg/mL (≈ 3.38 µM) | 10.2 µM | 74.3 µM |  | 
O=C(NC(=[Se])Nc1ccc(S(=O)(=O)Nc2nccs2)cc1)c1ccc(Cl)cc1 [10g, 4-Chloro-N-((4-(N-(thiazol-2-yl)sulfamoyl)phenyl)carbamoselenoyl)benzamide] | 64 µg/mL (≈ 128 µM) | > 256 µg/mL | 1.3 ± 0.58 µg/mL (≈ 2.6 µM) | 36.1 µM | 66.7 µM |  | 
NS(=O)(=O)c1ccc(O)c(NC(=[Se])NC(=O)c2ccccc2)c1 [11a] | 2.7 ± 1.15 µg/mL (≈ 6.78 µM) | 128 µg/mL (≈ 321 µM) | 1 µg/mL (≈ 2.51 µM) | 4.1 µM | 13.4 µM |  | 
CCCCCCCc1ccc(C(=O)NC(=[Se])Nc2cc(S(N)(=O)=O)ccc2O)cc1 [11b] | 5.3 ± 2.31 µg/mL (≈ 10.7 µM) | 256 µg/mL (≈ 516 µM) | 8 µg/mL (≈ 16.1 µM) | 4.93 µM | 78 µM |  | 
NS(=O)(=O)c1ccc(O)c(NC(=[Se])NC(=O)c2ccc([N+](=O)[O-])cc2)c1 [11c, N-((2-Hydroxy-5-sulfamoylphenyl)carbamoselenoyl)-4-nitrobenzamide] | 5.3 ± 2.31 µg/mL (≈ 12 µM) | 128 µg/mL (≈ 289 µM) | 0.5 µg/mL (≈ 1.13 µM) | 5.02 µM | 91.2 µM |  | 
NS(=O)(=O)c1ccc(O)c(NC(=[Se])NC(=O)c2ccc(I)cc2)c1 [11d, N-((2-Hydroxy-5-sulfamoylphenyl)carbamoselenoyl)-4-iodobenzamide] | 10.7 ± 4.62 µg/mL (≈ 20.4 µM) | 128 µg/mL (≈ 244 µM) | 13.3 ± 4.6 µg/mL (≈ 25.4 µM) | 2.93 µM | 7.5 µM |  | 
NS(=O)(=O)c1ccc(O)c(NC(=[Se])NC(=O)c2ccc(Cl)cc2)c1 [11f, 4-Chloro-N-((2-hydroxy-5-sulfamoylphenyl)carbamoselenoyl)benzamide] | 4 µg/mL (≈ 9.24 µM) | 256 µg/mL (≈ 592 µM) | 0.5 µg/mL (≈ 1.16 µM) | 5.13 µM | 54.2 µM |  | 
NS(=O)(=O)c1ccc(O)c(NC(=[Se])NC(=O)c2ccc(Br)cc2F)c1 [11g, 4-Bromo-2-fluoro-N-((2-hydroxy-5-sulfamoylphenyl)carbamoselenoyl)benzamide] | 5.3 ± 2.31 µg/mL (≈ 10.7 µM) | 256 µg/mL (≈ 517 µM) | 3.33 ± 1.15 µg/mL (≈ 6.72 µM) | 6.01 µM | 70.9 µM |  | 
NS(=O)(=O)c1ccc(O)c(NC(=[Se])NC(=O)c2ccc(CCl)cc2)c1 [11h, 4-(Chloromethyl)-N-((2-hydroxy-5-sulfamoylphenyl)carbamoselenoyl)benzamide] | 74.7 ± 48.9 µg/mL (≈ 167 µM) | > 256 µg/mL | 4 µg/mL (≈ 8.95 µM) | 6.49 µM | 76.6 µM |  | 
C[C@@H]1[C@H](O)[C@@H](C)/C=C/C=C/C=C/C=C/C=C/C=C/C=C/[C@H](O[C@@H]2O[C@H](C)[C@@H](O)[C@H](N)[C@@H]2O)C[C@@H]2O[C@](O)(C[C@@H](O)C[C@@H](O)[C@H](O)CC[C@@H](O)C[C@@H](O)CC(=O)O[C@H]1C)C[C@H](O)[C@H]2C(=O)O [Amphotericin B] | 1.95 µg/mL (≈ 2.11 µM) | 125 µg/mL (≈ 135 µM) | 0.43 ± 0.12 µg/mL (≈ 0.465 µM) |  |  | 0.98 µg/mL (≈ 1.06 µM) | 0.24 ± 1 µg/mL (≈ 0.26 µM)
